The values that follow come from patent publication US11214803B2, “Modulators of YAP1 expression” (Ionis Pharmaceuticals, Inc., priority 2019, dated 2022).

Strand notation (5' to 3'): a small letter for the sugar, then the base; units joined by * are phosphorothioate-linked, units joined directly phosphodiester-linked; [ ] holds rarer units or linkages, { } end groups; capitals alone tell only the bases. k = constrained ethyl (cEt); [5mC] = 5-methylcytosine; d = 2'-deoxy (DNA)

For the first series, the system named is Yap1 mRNA. In words: Antisense inhibition of human Yap1 in A-431 cells by cEt gapmers, single dose (Example 1, RTS4814). The format is cell-based. The following applies: A-431 cells, 5,000 cells per well, free uptake, 2,000 nM modified oligonucleotide, approx. 48 hours, RTS4814, normalized to RIBOGREEN; Table 3. The protocol:
Modified oligonucleotides were designed to target a Yap1 nucleic acid and were tested for their effect on Yap1 mRNA level in vitro. The modified oligonucleotides were tested in a series of experiments that had similar culture conditions. Cultured A-431 cells at a density of 5,000 cells per well were treated using free uptake with 2,000 nM of modified oligonucleotide. After a treatment period of approximately 48 hours, RNA was isolated from the cells and Yap1 mRNA levels were measured by quantitative real-time RTPCR. Human primer probe set RTS4814 (forward sequence […], designated herein as SEQ ID NO.: 11; reverse sequence […], designated herein as SEQ ID NO.: 12; probe sequence […], designated herein as SEQ ID NO.: 13) was used to measure mRNA levels. Yap1 mRNA levels were normalized to total RNA content, as measured by RIBOGREEN®. Results are presented in the tables below as percent control of the amount of Yap1 mRNA relative to untreated control cells (% UTC). The modified oligonucleotides with percent control values marked with an asterisk (*) target the amplicon region of the primer probe set. Additional assays may be used to measure the potency and efficacy of the modified oligonucleotides targeting the amplicon region.
The newly designed modified oligonucleotides in the Tables below were designed as 3-10-3 cEt gapmers. The gapmers are 16 nucleosides in length, wherein the central gap segment comprises of ten 2′-deoxynucleosides and is flanked by wing segments on the 5′ direction and the 3′ direction comprising three nucleosides each. Each nucleoside in the 5′ wing segment and each nucleoside in the 3′ wing segment has a cEt sugar modification. The internucleoside linkages throughout each gapmer are phosphorothioate (P═S) linkages. All cytosine residues throughout each gapmer are 5-methylcytosines.
“Start site” indicates the 5′-most nucleoside to which the gapmer is targeted in the human gene sequence. “Stop site” indicates the 3′-most nucleoside to which the gapmer is targeted human gene sequence. […] Activity of the modified oligonucleotide may be defined in a different experiment.
Turning to “715576 (kA*kA*k[5mC]*d[5mC]*dT*dT*dT*dA*d[5mC]*d[5mC]*dA*dA*dA*kA*k[5mC]*kG; antisense) [Compound 715576]”, the “YAP1 (% UTC)” value is 80 % UTC. Still for that read-out and setting: the figure for “715429 (k[5mC]*k[5mC]*kT*dG*dA*dG*dT*d[5mC]*dA*dT*dG*dG*d[5mC]*kT*kT*kG; antisense) [Compound 715429]” is 62 % UTC; for “715420 (kG*kA*kT*dT*dT*dA*dA*dG*dA*dA*dG*dT*dA*kT*k[5mC]*kT; antisense) [Compound 715420]” it is 107 % UTC; for “715525 (kT*kT*kA*d[5mC]*dT*dT*dT*dA*dA*dG*dA*dA*dG*kT*kA*kT; antisense) [Compound 715525]” it is 100 % UTC. On the same count and under the same terms, then “715513 (kG*k[5mC]*kG*dG*dA*dG*dG*d[5mC]*dG*d[5mC]*dG*d[5mC]*dG*k[5mC]*kA*kT; antisense) [Compound 715513]”, with 125 % UTC; and “715579 (k[5mC]*kT*kG*dT*d[5mC]*dT*dG*dG*dA*dA*dT*dA*d[5mC]*kA*k[5mC]*kA; antisense) [Compound 715579]”, with 100 % UTC.

The series is the same for the next values; noted with them: Table 1; A-431 cells, free uptake, 2,000 nM, approximately 48 hours, RTS4814; Yap1 mRNA relative to untreated control cells.
As to “715469 (antisense kT*kA*kG*d[5mC]*dT*dT*dG*dG*dT*dG*dG*d[5mC]*dA*kG*k[5mC]*k[5mC]) [Compound 715469]”, the “YAP1 (% UTC)” value is 94 % UTC. The same measure, in the same setting: the figure for “715616 (antisense kG*kA*k[5mC]*dG*dG*dA*dT*dA*dA*dA*dA*dA*dT*kT*kA*k[5mC]) [Compound 715616]” is 95 % UTC. The same measure, in the same setting: the figure for “715484 (antisense kT*kA*k[5mC]*dT*d[5mC]*dT*dT*dT*dG*dG*dA*dA*dA*k[5mC]*k[5mC]*kA) [Compound 715484]” is 123 % UTC.

On to “715571 (kA*kA*kA*dA*dT*d[5mC]*d[5mC]*dT*dG*d[5mC]*d[5mC]*dA*dA*k[5mC]*kA*kT; antisense) [Compound 715571]”, for which the “YAP1 (% UTC)” value came to 127 % UTC. For the substance “715439 (antisense kG*kG*kT*dT*d[5mC]*dA*dT*dG*dG*d[5mC]*dA*dA*dA*kA*k[5mC]*kG) [Compound 715439]”, the “YAP1 (% UTC)” value was found to be 99 % UTC. On the same count and under the same terms, then “715592 (kT*kT*k[5mC]*dT*dT*dT*dG*dG*d[5mC]*dA*dG*dA*dG*kA*kT*kA; antisense) [Compound 715592]”, with 89 % UTC.

On to “715409 (k[5mC]*kA*kG*dT*dA*d[5mC]*dT*dG*dG*d[5mC]*d[5mC]*dT*dG*kT*k[5mC]*kG; antisense) [Compound 715409]”, for which the “YAP1 (% UTC)” value is recorded as 76 % UTC. For the substance “715565 (kG*kG*kA*dT*dA*dA*dA*dT*dG*dA*dA*dT*dT*kA*kT*kA; antisense) [Compound 715565]”, the “YAP1 (% UTC)” value came out at 115 % UTC.

For “715436 (antisense kT*kG*kG*d[5mC]*dA*dA*dA*dA*d[5mC]*dG*dA*dG*dG*kG*kT*k[5mC]) [Compound 715436]”, the “YAP1 (% UTC)” value came to 126 % UTC.

For the substance “715538 (k[5mC]*kT*kT*dT*dG*dT*dA*dA*d[5mC]*dT*dT*dA*dA*kA*kA*kG; antisense) [Compound 715538]”, the “YAP1 (% UTC)” value stood at 110 % UTC.

Staying with this series, now noted: Table 2; A-431 cells, free uptake, 2,000 nM, approximately 48 hours, RTS4814; Yap1 mRNA relative to untreated control cells.
Regarding “715566 (kT*kA*kG*dG*dA*dT*dA*dA*dA*dT*dG*dA*dA*kT*kT*kA; antisense) [Compound 715566]”, the “YAP1 (% UTC)” value turned out to be 94 % UTC.

For the substance “715425 (kG*kT*k[5mC]*d[5mC]*dT*dG*d[5mC]*d[5mC]*dA*dT*dG*dT*dT*kG*kT*kT; antisense) [Compound 715425]”, the “YAP1 (% UTC)” value is given as 98 % UTC. The same measure, in the same setting: the figure for “715485 (antisense kA*kA*kT*dA*d[5mC]*dT*d[5mC]*dT*dT*dT*dG*dG*dA*kA*kA*k[5mC]) [Compound 715485]” is 72 % UTC; for “715620 (antisense kA*kA*kA*dA*dA*dT*dA*dA*dG*dA*d[5mC]*dG*dG*kA*kT*kA) [Compound 715620]” it is 111 % UTC; for “715401 (kG*kG*kT*d[5mC]*dT*d[5mC]*d[5mC]*dG*dA*dG*dT*d[5mC]*d[5mC]*k[5mC]*k[5mC]*kG; antisense) [Compound 715401]” it is 84 % UTC.
